# Data taken from publication PMC10950897, “VCF1 is a p97/VCP cofactor promoting recognition of ubiquitylated p97-UFD1-NPL4 substrates” (Nature Communications, 2024).
# How the values were obtained:
# [1] = tested on: GFP-VCF1 WT / N167A interactome, U2OS cells; test: GFP IP mass spectrometry, comparison of VCF1 WT and N167A interactomes (WT/N167A); type: binding, human; details: GFP-VCF1 WT / N167A IPs, partially denaturing RIPA buffer
# Protocol: (§1) U2OS (catalog no. HTB-96) cells were obtained from ATCC. HEK293-EBNA1-6E cells were a kind gift from Yves Durocher (National Research Council Canada, Montreal, Canada). All mammalian cell lines were cultured under standard conditions at 37 °C and 5% CO2 in DMEM (Thermo) supplemented with 10% FBS (v/v) and penicillin-streptomycin (Thermo). Recombination cloning-compatible U2OS cells were generated using the Flp-In T-Rex Core Kit (Thermo) according to the manufacturer’s instructions and maintained under selection using Blasticidin (Invivogen) and Zeocin (Thermo). To generate cell lines stably expressing GFP-VCF1, U2OS Flp-In T-Rex cells (Thermo) were co-transfected with GFP-VCF1 constructs and pOG44 (Thermo) plasmids, followed by selection with Hygromycin (Invitrogen). Single clones were carefully screened for uniform expression of ectopic GFP-VCF1 at low levels and maintained under selection with Blasticidin and Hygromycin. To induce GFP-VCF1 expression, cells were treated with Doxycycline (DOX) (0.5 µg/ml) for 16 h. U2OS cell lines stably expressing Ub(G76V)-GFP or Ub(G76V)-GFP-20AA were described previously. A U2OS cell line stably expressing Ub(G76V)-GFP-NES was generated under G418 (Invivogen) selection. Clones with low baseline GFP expression were visually screened for low basal GFP expression. All cell lines used in this study were regularly tested negative for mycoplasma infection and were not authenticated.
# (§2) Immunoblotting was performed as previously described. Immunoprecipitation (IP) of HA-tagged proteins was performed using Anti-HA Affinity matrix (Roche) under denaturing conditions, unless otherwise stated. GFP-trap and […] Fab-trap agarose (Chromotek) were used according to manufacturer’s instructions. Cell lysis was performed using RIPA buffer (140 mM NaCl; 10 mM Tris-HCl, pH 8.0; 0.1% sodium deoxycholate; 1% Triton X-100; 0.1% SDS; 1 mM EDTA; 0.5 mM EGTA) or EBC buffer (50 mM Tris, pH 7.5; 150 mM NaCl; 1 mM EDTA; 0.5% NP-40, 1 mM DTT). IPs were washed in non-denaturing buffer (50 mM Tris-HCl, pH 7.5; 150 mM NaCl; 0.5 mM EDTA). Cell lysis and IP under partially denaturing conditions were performed using denaturing buffer (20 mM Tris-HCl, pH 7.5; 50 mM NaCl; 0.5% sodium deoxycholate; 0.5% NP-40; 0.5% SDS; 1 mM EDTA). All lysis and wash buffers were supplemented with 1 mM fresh PMSF Protease Inhibitor (Thermo), complete EDTA-free protease inhibitor Cocktail Tablets (Roche), 1.25 mM N-ethylmaleimide (Sigma) and 50 µM PR-619 (Calbiochem).
# (§3) GFP-Trap agarose (Chromotek) pulldowns were subjected to partial on-bead digestion for peptide elution, by addition of 100 µl of elution buffer (50 mM Tris, pH 7.5; 2 M urea; 2 mM DTT; 20 µg/ml trypsin) and incubation at 37 °C for 30 min. To carry out alkylation, 25 mM CAA was added to the samples, which were then left to digest overnight at room temperature. Digestion was halted by introducing 1% TFA. Purification and desalting of peptides were done using SDB-RPS StageTips. This process required preparing two layers of SDB-RPS with 100 µl of wash buffer (0.2% TFA in H2O), onto which the peptides were loaded. After centrifugation for 5 min at 500 × g, peptides were washed using 150 µl wash buffer, eluted with 50 µl elution buffer (80% ACN; 1% ammonia) and vacuum-dried.
# (§4) Liquid chromatography-mass spectrometry (LC-MS) analysis was conducted using an EASY-nLC-1200 system (Thermo Fisher Scientific), coupled with a timsTOF Pro spectrometer and a nano-electrospray ion source (Bruker Daltonik). […]
# [2] = tested on: p97; test: GFP IP of GFP-VCF1 alanine mutants from U2OS cells; type: binding, human; details: full-length GFP-VCF1, U2OS
# Protocol: as §2
# [3] = tested on: GFP-VCF1 WT interactome, U2OS cells; test: GFP IP mass spectrometry of VCF1-interacting proteins, non-denaturing EBC buffer (+DOX/-DOX); type: binding, human
# Protocol: as §1, §2, §3, §4
# [4] = tested on: Ub(G76V)-GFP, U2OS cells; test: QIBC of Ub(G76V)-GFP after siRNA; type: cell-based, human; details: siRNA 20 nM, QIBC >10,000 cells
# Protocol: as §1, with “Clones with low baseline GFP expression were visually screened for low basal GFP expression. All cell lines used in this study were regularly tested negative for mycoplasma infection and were not authenticated.” left out
# Mammalian cells grown on coverslips were fixed in formalin buffer (VWR) for 15 min at room temperature (RT). […] Quantitative image-based cytometry (QIBC) was performed as described. […]
# [5] = tested on: GFP-VCF1 WT interactome, U2OS cells; test: GFP IP mass spectrometry of VCF1-interacting proteins, partially denaturing RIPA buffer (+DOX/-DOX); type: binding, human
# Protocol: as §1, with “All cell lines used in this study were regularly tested negative for mycoplasma infection and were not authenticated.” left out
# [6] = tested on: p97 (His6-p97 WT and N-domain mutants); test: Peptide/protein pulldown with purified WT or mutant His6-p97 (VRM, VIM, VBM, p47); type: binding, human; details: peptides on StrepTactin agarose (p47: protein), purified WT or mutant His6-p97, RIPA wash
# Protocol: All in vitro binding experiments were performed in EBC or RIPA buffer as indicated. Recombinant Biotin-tagged K48-linked poly-ubiquitin chains (2−7) and K48-linked poly-ubiquitin chains (2−16) were purchased from R&D Systems and Enzo Life Science, respectively. Recombinant proteins were incubated with Strep-Tactin Sepharose (IBA), Glutathione agarose (Gold Biotechnology) or […] Fab-trap agarose (ChromoTek) overnight on an end-over-end rotator at 4 °C, washed six times with EBC or RIPA buffer, and resuspended in 2×Laemmli sample buffer. For p97, VCF1 or p47 pulldowns, antibodies (0.5 µg/sample) were coupled to agarose beads, incubated with recombinant proteins or cell lysates and washed with the indicated buffer. To assess p97-UFD1-NPL4 binding to ubiquitylated proteins in total cell extracts, U2OS cells were lysed in EBC buffer supplemented with protease and phosphatase inhibitors, sonicated and incubated on ice for 10 min. Lysates were cleared by centrifugation for 10 min at 16,100 × g. […]
# Peptides were coupled to beads for a minimum of 2 h at 4 °C with rotation, blocked in BSA (New England Biolabs) and washed three times for 1 min, before incubation overnight at 4 °C with whole cell lysate or purified proteins. Beads were then washed three times for 1 min and bound material was eluted in 2×Laemmli sample buffer and analyzed by immunoblotting.
# [7] = tested on: p97 with poly-ubiquitylated mEos3.2; test: In vitro p97 unfoldase assay (mEos3.2); type: biochemical, human; details: p97 100 nM hexamer, VCF1 300 nM, substrate 35 nM, 37 °C
# Protocol: Di-ubiquitin-fused mEos3.2 fluorescent protein (diUb-mEos3.2) and ubiquitylation cascade proteins mUbe1, gpc78-ubc7 fusion and ubiquitin were recombinantly expressed in E. coli and purified as described previously. diUb-mEos3.2 substrate was enzymatically polyubiquitylated as described previously. […] The unfolding activity of p97 was monitored in vitro by measuring the decrease in diUb^n-mEos3.2 fluorescence. For this, diUb^n-mEos3.2 (35 nM), p97 (100 nM hexamer), UFD1-NPL4 (500 nM) and VCF1 (300 nM) were mixed as indicated in Eos assay buffer (50 mM HEPES, pH 7.5; 150 mM KCl; 2 mM MgCl2; 5% glycerol; 1 mM DTT) and pre-warmed to 37 °C for 5 min before ATP (2 mM) was added to start the reaction. Unfolding of red mEos3.2 fluorescence was measured every 15 s in a Varian Cary Eclipse spectrofluorometer (excitation: 500 nm; emission: 520 nm) and normalized to the first value after addition of ATP.
# [8] = tested on: p97-UFD1-NPL4 binding to K48-Ub2-7; test: FLAG IP: p97-UFD1-NPL4 binding to K48-linked ubiquitin chains, purified proteins; type: biochemical, human; details: purified proteins, FLAG IP
# Protocol: (§5) All in vitro binding experiments were performed in EBC or RIPA buffer as indicated. Recombinant Biotin-tagged K48-linked poly-ubiquitin chains (2−7) and K48-linked poly-ubiquitin chains (2−16) were purchased from R&D Systems and Enzo Life Science, respectively. Recombinant proteins were incubated with Strep-Tactin Sepharose (IBA), Glutathione agarose (Gold Biotechnology) or […] Fab-trap agarose (ChromoTek) overnight on an end-over-end rotator at 4 °C, washed six times with EBC or RIPA buffer, and resuspended in 2×Laemmli sample buffer. For p97, VCF1 or p47 pulldowns, antibodies (0.5 µg/sample) were coupled to agarose beads, incubated with recombinant proteins or cell lysates and washed with the indicated buffer. To assess p97-UFD1-NPL4 binding to ubiquitylated proteins in total cell extracts, U2OS cells were lysed in EBC buffer supplemented with protease and phosphatase inhibitors, sonicated and incubated on ice for 10 min. Lysates were cleared by centrifugation for 10 min at 16,100 × g. Cell lysate (40 µg) was added to recombinant proteins in EBC buffer, incubated overnight on the rotator with […] Fab-trap agarose (ChromoTek), and beads were washed six times.
# [9] = tested on: p97-UFD1-NPL4 binding to ubiquitylated proteins; test: FLAG IP: p97-UFD1-NPL4 binding to ubiquitylated proteins in U2OS cell extracts; type: biochemical, human; details: U2OS total cell extracts, EBC buffer
# Protocol: as §5
substance,measurement,setting,value
G6PD,Relative protein level (log2) WT/MUT,[1],4.291 log2
AHNAK,Relative protein level (log2) WT/MUT,[1],2.811 log2
L170: alanine mutant of residue L170 in full-length VCF1,effect of alanine scan on p97 binding,[2],essential for VCF1 binding to p97
Histone H3.1 [HIST1H3A;HIST2H3A;HIST3H3;H3F3A;H3F3B],Relative protein level (log2) WT/noDox,[3],5.652 log2
5’-AGCCAGCUCUUCCAUCUUA-3’ [p47 siRNA],effect on Ub(G76V)-GFP level,[4],had no effect
Transitional endoplasmic reticulum ATPase [VCP],Relative protein level (log2) WT/noDox,[5],4.192 log2
same,Relative protein level (log2) WT/noDox,[3],3.764 log2
same,Relative protein level (log2) WT/MUT,[1],7.367 log2
"NLTSEELRKRREAYFEKQQQK [VBM, biotinylated VBM peptide of ATXN3 aa275-295]",dependence of binding on p97 Y143,[6],required for binding to all three motifs
FLNA,Relative protein level (log2) WT/MUT,[1],3.526 log2
Protein FAM104A,Relative protein level (log2) WT/noDox,[5],3.522 log2
same,Relative protein level (log2) WT/noDox,[3],4.7326 log2
VCF1-p97 complex: complex of VCF1 and p97,unfolding of poly-ubiquitylated mEos3.2 without UFD1-NPL4,[7],unable to unfold a poly-ubiquitylated fluorescent model substrate (mEos3.2)
40S ribosomal protein S29 [RPS29],Relative protein level (log2) WT/noDox,[3],2.611 log2
H174: alanine mutant of residue H174 in full-length VCF1,effect of alanine scan on p97 binding,[2],essential for VCF1 binding to p97
mutation of the VRM: VCF1 with mutated VRM (N167A by Fig. 5c reply),effect on p97-UFD1-NPL4 binding to K48 ubiquitin chains,[8],abrogated
same,effect on p97-UFD1-NPL4 binding to ubiquitylated proteins,[9],abrogated
"PTPDLEEKRAKLAEAAERRQKEAAS [VIM, biotinylated VIM peptide of SVIP aa14-39]",dependence of binding on p97 Y143,[6],required for binding to all three motifs
60S ribosomal protein L19 [RPL19],Relative protein level (log2) WT/noDox,[3],2.902 log2
